Results: US11344603B2, “Cytokine modulation” (AUCKLAND UNISERVICES LIMITED, priority 2017, dated 2022)
“Also recorded” adds a separate entry of the source.

Legend:
[1] = test system: ARPE-19 cells; test: VEGF secretion by ARPE-19 cells; type: cell-based, human; settings: for VEGF release: high glucose + cytokines + Peptagon, versus basal
Procedure: (§1) Human adult retinal pigmented epithelial cells (ARPE-19; American Type Culture Collection, Manassas, Va.) were cultured in Dulbecco's Modified Eagle Medium Nutrient Mixture F-12 medium (DMEM-F12; Thermofisher Scientific Inc., USA) supplemented with 10% foetal bovine serum (FBS; Invitrogen) and a 1× antibiotics and antimycotics mixture (AA, 100× stock) at 37° C. in a humidified 5% C02 incubator. Cells were grown in T75 flasks and the medium was changed twice per week until confluent and ready for experimentation.
(§2) At passage 6-12, cells were plated at 2.5×10^5 cells/mL in 8-well chamber slides for immunohistochemical studies or 24-well plates for ATP release assay and cytometric bead array analysis. Once confluent, the culture medium was changed to treatments in serum-free DMEM-F12 containing 1×AA. Some cultures were challenged with 15 mM glucose (High glucose (high glucose) group), a combination of pro-inflammatory cytokines 10 ng/mL TNF-α (Peprotech, USA) and 10 ng/mL IL-1β (Peprotech, USA) (Cytokines group), or a combination of high glucose, 10 ng/mL TNF-α and 10 ng/mL IL-1β (high glucose+Cytokines group). The untreated group received a medium change with no additional treatments (Basal group). All assessments were carried out 24 h post-treatment.
(§3) Peptide5 (H-Val-Asp-Cys-Phe-Leu-Ser-Arg-Pro-Thr-Glu-Lys-Thr-OH (SEQ ID NO: 1); China Peptides, China) was administered to cells challenged with high glucose and pro-inflammatory cytokines. Concentration-dependent effects were studied at 5, 10, 25 and 50 μM of […] after 24 h. […] O'Carroll, S J, et al. Connexin43 mimetic peptides reduce swelling, astrogliosis, and neuronal cell death after spinal cord injury. Cell communication & adhesion, 15:27-42 (2008).

[2] = test system: ARPE-19 cells; test: Cytokine and chemokine measurement by Cytometric Bead Array in ARPE-19 incubation medium; type: cell-based, human
Procedure: as §1, §2, §3
Soluble cytokines and chemokines in the ARPE-19 incubation medium were measured simultaneously using multiplexed bead-based immunoassays, Cytometric Bead Array (CBA, BD Biosciences, USA). Three tests of 50 μL volume was taken from duplicate cultures in 24-well plates after 24 h and transferred into a 96-well plate to be used for the CBA assay. The analysis included six tests per group. The assay was conducted according to the manufacturer's instructions. Briefly, a ten-point standard curve ranging from 0 to 5000 pg/mL for each cytokine was prepared using the cytokine standard provided in each kit. The cytokines measured were human soluble CD54 (sICAM-1, cat #560269, BD Biosciences, USA), IL-6 (cat #558276), IL-8 (cat #558227), and MCP-1 (cat #558287). Samples and cytokine standards were incubated in the capture bead mixture for 1 h and Phycoerythrin (PE)-conjugated antibodies against each cytokine were added to the sample-bead mixture for 2 h incubation at room temperature. All buffers used were from the CBA human soluble protein master buffer kit (cat #558265, BD Biosciences, USA). Beads were washed and analysed using an Accuri C6 flow cytometer (BD Biosciences, USA). Mean fluorescence intensity for each bead cluster was converted into cytokine concentrations based on the ten-point standard curve using FCAP Array™ software (BD version 3.1) as described previously (O'Carroll et al., 2015).

[3] = test system: NLRP3 inflammasome complex; test: Immunohistochemical labelling and quantification of NLRP3 inflammasome complexes; type: cell-based, human; settings: 24 h
Procedure: At passage 6-12, cells were plated at 2.5×10^5 cells/mL in 8-well chamber slides for immunohistochemical studies or 24-well plates for ATP release assay and cytometric bead array analysis. Once confluent, the culture medium was changed to treatments in serum-free DMEM-F12 containing 1×AA. Some cultures were challenged with 15 mM glucose (High glucose (high glucose) group), a combination of pro-inflammatory cytokines 10 ng/mL TNF-α (Peprotech, USA) and 10 ng/mL IL-1β (Peprotech, USA) (Cytokines group), or a combination of high glucose, 10 ng/mL TNF-α and 10 ng/mL IL-1β (high glucose+Cytokines group). The untreated group received a medium change with no additional treatments (Basal group). All assessments were carried out 24 h post-treatment. After 24 h of incubation in treatment media, cells were fixed with 4% paraformaldehyde for 10 min and permeabilised with 0.1% Triton X-100 in phosphate buffer saline (PBS) for 10 min. Cells were then incubated with mouse anti-NLRP3 (1:100; Abcam, USA) at 4° C. overnight followed by washing in PBS three times for 15 min. Goat anti-mouse Cy3 (1:500; Jackson Immuno Research, USA) secondary antibodies were applied to the slides and incubated at room temperature for 3 h. […] For NLRP3 immunohistochemical analysis, four images were analysed per well and the entire experiment was repeated three times. […] The number of NLPR3 spots were counted for each image.

[4] = test system: connexin 43 hemichannels; settings: cited from earlier work
[5] = test system: ARPE-19 cells; test: ATP release assay (ATPlite luminescence); type: cell-based, human; settings: high glucose + cytokines, 24 h, compared to high glucose and cytokines
Procedure: as §1
At passage 6-12, cells were plated at 2.5×10^5 cells/mL in 8-well chamber slides for immunohistochemical studies or 24-well plates for ATP release assay and cytometric bead array analysis. Once confluent, the culture medium was changed to treatments in serum-free DMEM-F12 containing 1×AA. […]
After 24 h of incubation in treatment media, ATP release was measured in triplicates using 50 μL of culture medium taken from duplicate wells of 24-well plates. […] ATP released into the culture medium was measured using the ATPlite Luminescence ATP Detection Assay System as per manufacturer instructions (PerkinElmer, USA). ATP release (%) in Peptide5 treated cultures (treated group) were calculated relative to cells treated with high glucose and cytokines (injury group) using the formula: (OD490 of treated group−OD490 of injury group)/(OD490 of injury group)×100%.

[6] = target: Cx43 carboxy-terminal domain (Rattus norvegicus, UniProt P08050); settings: low pH conditions; Verma et al. 2009, 2010; cited from earlier work
[7] = 10 nM exogenous ATP alone, mean ± SD
[8] = high glucose + cytokines + Peptagon 25 μM + ATP 10 nM, 24 h
[9] = high glucose + cytokines (10 ng/mL TNF-α, 10 ng/mL IL-1β), Peptagon 5, 10, 25, 50 μM, 24 h
[10] = high glucose + cytokines, 5, 10, 25, 50 μM, 24 h
[11] = high glucose + cytokines, Peptagon 25 μM, 24 h

Chain of Cx43 carboxy-terminal domain (P08050 whole entry, the tested form may be a part): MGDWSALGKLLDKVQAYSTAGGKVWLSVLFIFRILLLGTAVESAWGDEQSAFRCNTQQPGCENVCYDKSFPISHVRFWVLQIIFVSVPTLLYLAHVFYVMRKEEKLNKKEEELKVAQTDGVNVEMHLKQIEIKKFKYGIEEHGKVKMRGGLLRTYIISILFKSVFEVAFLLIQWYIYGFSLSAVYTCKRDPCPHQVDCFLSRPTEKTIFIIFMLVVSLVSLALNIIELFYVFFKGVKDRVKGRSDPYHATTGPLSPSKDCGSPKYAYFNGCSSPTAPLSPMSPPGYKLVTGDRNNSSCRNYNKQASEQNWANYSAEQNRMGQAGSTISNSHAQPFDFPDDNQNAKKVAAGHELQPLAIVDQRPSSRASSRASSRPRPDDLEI

## Nc1ncnc2c1ncn2[C@@H]1O[C@H](COP(=O)(O)OP(=O)(O)OP(=O)(O)O)[C@@H](O)[C@H]1O [ATP]
[1]; 10 nM exogenous ATP alone
  change in VEGF secretion compared to basal conditions: no change
[1]; [7]
  VEGF secretion in response to extracellular ATP: 56.62 ± 8.94 pg/mL
[1]; high glucose + cytokines + Peptagon + exogenous ATP, 24 h
  effect of exogenous ATP on Peptagon hemichannel block effect on VEGF release: completely overrode; also recorded: negated hemichannel blocker-mediated protection against VEGF release
[2]; 10 nM exogenous ATP alone
  change in IL-6 secretion compared to basal conditions: no change
  change in IL-8 secretion compared to basal conditions: no change
  change in sICAM-1 secretion compared to basal conditions: no change
[2]; [7]
  IL-6 secretion in response to extracellular ATP: 8.22 ± 2.25 pg/mL
  IL-8 secretion in response to extracellular ATP: 67.70 ± 11.44 pg/mL
  MCP-1 secretion in response to extracellular ATP: 230.72 ± 37.08 pg/mL
  sICAM-1 secretion in response to extracellular ATP: 0 pg/mL
[2]; 10 nM exogenous ATP alone, p≤0.0001
  change in MCP-1 release compared to basal conditions: decrease
[2]; [8]
  effect of exogenous ATP on Peptagon-mediated protection against IL-6 release: back towards injury levels; also recorded: reversed
  effect of exogenous ATP on Peptagon-mediated protection against IL-8 release: back towards injury levels; also recorded: reversed
  effect of exogenous ATP on Peptagon-mediated protection against MCP-1 release: back towards injury levels; also recorded: reversed
  effect of exogenous ATP on Peptagon-mediated protection against sICAM-1 release: did not reach statistical significance
[3]; high glucose + cytokines + Peptagon + 10 nM ATP
  effect of exogenous ATP on Peptagon block of NLRP3 inflammasome assembly: overrode the hemichannel blocker treatment

## H-Val-Asp-Cys-Phe-Leu-Ser-Arg-Pro-Thr-Glu-Lys-Thr-OH (H-VDCFLSRPTEKT-OH) [Peptagon]
[1]; 24 h
  VEGF release: restored VEGF secretion back to basal levels
[1]; 24 h, listed as Peptide5
  VEGF release: completely arrested
[2]; [9]
  IL-6 secretion: significantly reduced
  IL-8 secretion: significantly reduced
  MCP-1 secretion: significantly reduced
  sICAM-1 secretion: significantly reduced; also recorded: decrease
[2]; [10]
  concentration dependence of decrease in IL-6, IL-8 and MCP-1 secretion: slight trend towards a concentration-dependent decrease; also recorded: concentration-dependent manner
  concentration dependence of decrease in sICAM-1 secretion: all peptide concentrations had the same effect
[2]; [11]
  IL-6 secretion: reduced secretion
  IL-8 secretion: reduced secretion
  MCP-1 secretion: reduced secretion
  sICAM-1 secretion: reduced secretion
[3]; high glucose + inflammatory cytokines
  NLRP3 inflammasome assembly: blocked inflammasome assembly
[4]; 5, 10, 25 and 50 μM, O'Carroll et al. 2008
  connexin 43 hemichannel block versus gap junction coupling: block connexin 43 hemichannels with minimal effect on gap junction cell-cell coupling
[4]; O'Carroll et al., 2008
  dose dependent action on hemichannels and gap junctions: lower doses blocking gap junction hemichannel opening and higher doses uncoupling gap junctions between cells
[5]
  ATP release: significantly reduced
[5]; listed as Peptide5
  ATP release: prevented

## RRNYRRNY [linear peptide RRNYRRNY targeting the Cx43 carboxy-terminal domain]
[6]
  Cx43-based gap junction closure: prevent Cx43-based gap junction closure under low pH conditions
